Results on one molecule are retold here after PMC5718519, “Crystal structures of ternary complexes of archaeal B-family DNA polymerases” (PLoS ONE, 2017).

The assay addresses T1, KOD DNA pol (exo-) (Thermococcus kodakarensis, UniProt P77933, D141A/E143A).
T1 construct: exonuclease-deficient mature polymerase (inteins absent); codon-optimized, pET24a, E. coli BL21(DE3); heparin and Superdex 75; no tag mentioned
The assay can be described thus: X-ray crystal structure of closed ternary complex. Format: binding. The following applies: with ddC-terminated primer/template DNA; Mg2+ (site A) and two Mn2+ (sites B, C); polymerase active site; pH 7.5.

SMILES strings stand for the structures.

Regarding `Nc1ncnc2c1ncn2[C@H]1C[C@H](O)[C@@H](COP(=O)(O)OP(=O)(O)OP(=O)(O)O)O1` [dATP, 2’-deoxy-adenosine-5’-triphosphate], the “X-ray crystal structure of closed ternary complex” value is “KOD DNA pol binds the incoming dATP in a pocket formed by the palm”.
